The nature of assay [1]: Inhibition of cell growth by compound at a concentration of 10 uM in 9Ltk+ cells. The format is functional. The following applies: Rattus norvegicus.
The species named for assay [2] is Rattus norvegicus. The experiment in a line: Inhibition of cell growth by compound at a concentration of 100 uM in 9Ltk+ cells; Completely stopped the process. It counts as functional, cell-based.
The species entered for assay [3] is Rattus norvegicus. The experiment in a line: Anti proliferation activity determined; Weak effect. The format is functional.
The species named for assay [4] is Rattus norvegicus. The experiment in a line: Inhibition of cell growth by compound at a concentration of 10 uM in 9Ltk+ cells; […]. It counts as functional, cell-based.

From ChEMBL document CHEMBL1130487, “Development of a positron emission tomography radiopharmaceutical for imaging thymidine kinase gene expression: Synthesis and in vitro evaluation of 9-{3-[18F] Fluoro-1-hydroxy-2-propoxymethyl guanine” (1997) come the findings set out here.

The structures appear in SMILES notation.

With `Nc1nc(O)c2ncn(COC(CO)CF)c2n1` (centres undefined), in assay [1], the inhibition at 10 µM is 50%.
Turning to `Nc1nc2c(ncn2COCCO)c(=O)[nH]1`, the inhibition result in the assay listed under Rattus norvegicus [2] is recorded as “Completely stopped the process”.
With `Nc1nc2c(ncn2COC(CO)CO)c(=O)[nH]1`, the Activity result in the assay filed under Rattus norvegicus [3] is “Weak effect”. For the same molecule, in the assay listed under Rattus norvegicus [4], the inhibition entry is “Completely stopped the process”.
